# Reference: PubChem BioAssay AID256 (DTP/NCI, 2004)
# Several values for one entry are separate records, joined by “and”; a condition that tells them apart may be missing. Equal values may be shown once. Inconclusive results and toxic doses are left out.
# Tested on: CD2F1 mice, L1210 leukemia ip, survival T/C
# Test: NCI In Vivo Anticancer Drug Screen. Data for tumor model L1210 Leukemia (intraperitoneal) in CD2F1 (CDF1) mice
# Details: higher = longer survival
# In short: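 Implant tumor; dose compound or vehicle; measure endpoint in both groups; report treated divided by control.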
# [1] = endpoint: mean survival time, dose: 100.0 mg/kg/injection, schedule: Q04DX003 (ip), vehicle: saline with Tween-80
# [2] = endpoint: mean survival time, dose: 200.0 mg/kg/injection, schedule: Q04DX003 (ip), vehicle: saline with Tween-80
# [3] = endpoint: mean survival time, dose: 400.0 mg/kg/injection, schedule: Q04DX003 (ip), vehicle: saline with Tween-80
# [4] = endpoint: mean survival time, dose: 100.0 mg/kg/injection, schedule: Q01DX001 (ip), vehicle: saline with Tween-80
# [5] = endpoint: mean survival time, dose: 100.0 mg/kg/injection, schedule: Q01DX009 (ip), vehicle: saline with Tween-80
# [6] = endpoint: mean survival time, dose: 200.0 mg/kg/injection, schedule: Q01DX001 (ip), vehicle: saline with Tween-80
# [7] = endpoint: mean survival time, dose: 200.0 mg/kg/injection, schedule: Q01DX009 (ip), vehicle: saline with Tween-80
# [8] = endpoint: mean survival time, dose: 400.0 mg/kg/injection, schedule: Q01DX001 (ip), vehicle: saline with Tween-80
# [9] = endpoint: mean survival time, dose: 100.0 mg/kg/injection, schedule: Q04DX002 (ip), vehicle: saline with Tween-80
# [10] = endpoint: mean survival time, dose: 400.0 mg/kg/injection, schedule: Q04DX002 (ip), vehicle: saline with Tween-80
# [11] = endpoint: mean survival time, dose: 50.0 mg/kg/injection, schedule: Q01DX009 (ip), vehicle: saline with Tween-80
# [12] = endpoint: mean survival time, dose: 25.0 mg/kg/injection, schedule: Q01DX009 (ip), vehicle: saline with Tween-80
# [13] = endpoint: mean survival time, dose: 200.0 mg/kg/injection, schedule: Q04DX002 (ip), vehicle: saline with Tween-80
# [14] = endpoint: mean survival time, dose: 400.0 mg/kg/injection, schedule: Q01DX009 (ip), vehicle: saline with Tween-80
smiles,measurement,setting,value
O=[N+]([O-])c1cccc(OCCCOc2ccccc2)c1,T/C,"endpoint: mean survival time, dose: 100.0 mg/kg/injection, schedule: Q04DX003 (ip), vehicle: other",93 % of control
same,T/C,"endpoint: mean survival time, dose: 200.0 mg/kg/injection, schedule: Q04DX003 (ip), vehicle: other",93 % of control
same,T/C,"endpoint: mean survival time, dose: 400.0 mg/kg/injection, schedule: Q04DX003 (ip), vehicle: other",94 % of control
CCC(=O)OCC1OC(n2ccc(O)cc2=O)C(O)C1O (configuration not stated),T/C,"endpoint: median survival time, dose: 44.0 mg/kg/injection, schedule: Q01DX009 (ip), vehicle: saline + alcohol",178 % of control
same,T/C,"endpoint: median survival time, dose: 67.0 mg/kg/injection, schedule: Q01DX009 (ip), vehicle: saline + alcohol",174 % of control
same,T/C,"endpoint: median survival time, dose: 100.0 mg/kg/injection, schedule: Q01DX009 (ip), vehicle: saline + alcohol",174 % of control
same,T/C,"endpoint: median survival time, dose: 150.0 mg/kg/injection, schedule: Q01DX009 (ip), vehicle: saline + alcohol",153 % of control
CC(CCCC1SCC2NC(=O)NC21)C(=O)O (configuration not stated),T/C,[1],98 % of control
same,T/C,[2],98 % of control
same,T/C,[3],98 % of control
Cc1ccc2c(c1)C(C(F)(F)F)(C(F)(F)F)OC(C(F)(F)F)(C(F)(F)F)N2,T/C,[4],104 % of control
same,T/C,[5],95 % of control
same,T/C,[6],103 % of control
same,T/C,[7],102 % of control
same,T/C,[8],95 % of control
C[NH-].[Cl][Pt+2][Cl].[NH-]C1CC1,T/C,"endpoint: mean survival time, dose: 1.56 mg/kg/injection, schedule: Q04DX003 (ip), vehicle: saline",103 % of control
same,T/C,"endpoint: mean survival time, dose: 3.12 mg/kg/injection, schedule: Q04DX003 (ip), vehicle: saline with Tween-80",113 % of control
same,T/C,"endpoint: mean survival time, dose: 3.12 mg/kg/injection, schedule: Q04DX003 (ip), vehicle: saline",103 % of control
same,T/C,"endpoint: mean survival time, dose: 6.25 mg/kg/injection, schedule: Q04DX003 (ip), vehicle: saline",120 % of control
same,T/C,"endpoint: mean survival time, dose: 12.5 mg/kg/injection, schedule: Q04DX003 (ip), vehicle: saline with Tween-80",104 % of control
[I][Pt][I].c1ccc([PH+](c2ccccc2)c2ccccc2)cc1.c1ccc([PH+](c2ccccc2)c2ccccc2)cc1,T/C,"endpoint: mean survival time, dose: 6.25 mg/kg/injection, schedule: Q04DX002 (ip), vehicle: saline with Tween-80",104 % of control
same,T/C,"endpoint: mean survival time, dose: 12.5 mg/kg/injection, schedule: Q04DX002 (ip), vehicle: saline with Tween-80",93 % of control
same,T/C,"endpoint: mean survival time, dose: 25.0 mg/kg/injection, schedule: Q04DX002 (ip), vehicle: saline with Tween-80",96 % of control
same,T/C,[9],87 % of control
same,T/C,[10],91 % of control
CCCCCC(O)C(C)C(C)C (configuration not stated),T/C,[11],100 % of control
same,T/C,[5],95 % of control
same,T/C,[7],103 % of control
O=C(Nc1cc(C(F)(F)F)ccc1Cl)c1cccc(C(=O)Nc2cc(C(F)(F)F)ccc2Cl)c1,T/C,"endpoint: mean survival time, dose: 12.5 mg/kg/injection, schedule: Q01DX009 (ip), vehicle: saline with Tween-80",86 % of control
same,T/C,[12],90 % of control
same,T/C,[11],92 % of control
C/C=C/C=C\C=C/C(O)CC(OP(=O)(O)O)C(C)(O)/C=C/C1CC=CC(=O)O1 (configuration not stated),T/C,"endpoint: median survival time, dose: 0.38 mg/kg/injection, schedule: Q01DX009 (ip), vehicle: water",116 % of control
same,T/C,"endpoint: median survival time, dose: 1.5 mg/kg/injection, schedule: Q01DX009 (ip), vehicle: water",180 % of control
same,T/C,"endpoint: median survival time, dose: 3.0 mg/kg/injection, schedule: Q01DX009 (ip), vehicle: water",153 % of control and 168 % of control
same,T/C,"endpoint: median survival time, dose: 6.0 mg/kg/injection, schedule: Q01DX009 (ip), vehicle: water",120 % of control and 226 % of control
CCOC(=O)Nc1cccnc1,T/C,"endpoint: mean survival time, dose: 75.0 mg/kg/injection, schedule: Q01DX001 (ip), vehicle: saline with Tween-80",104 % of control
same,T/C,"endpoint: mean survival time, dose: 150.0 mg/kg/injection, schedule: Q01DX001 (ip), vehicle: saline with Tween-80",98 % of control
same,T/C,"endpoint: mean survival time, dose: 300.0 mg/kg/injection, schedule: Q01DX001 (ip), vehicle: saline with Tween-80",106 % of control
C[N+](C)(C)C,T/C,"endpoint: mean survival time, dose: 5.0 mg/kg/injection, schedule: Q01DX001 (ip), vehicle: saline",98 % of control
same,T/C,"endpoint: mean survival time, dose: 5.0 mg/kg/injection, schedule: Q01DX009 (ip), vehicle: saline sonified",95 % of control
same,T/C,"endpoint: mean survival time, dose: 5.0 mg/kg/injection, schedule: Q04DX003 (ip), vehicle: saline",100 % of control
same,T/C,"endpoint: mean survival time, dose: 6.25 mg/kg/injection, schedule: Q01DX009 (ip), vehicle: saline with Tween-80",96 % of control
same,T/C,"endpoint: mean survival time, dose: 10.0 mg/kg/injection, schedule: Q01DX009 (ip), vehicle: saline sonified",87 % of control
same,T/C,"endpoint: mean survival time, dose: 20.0 mg/kg/injection, schedule: Q01DX001 (ip), vehicle: saline",98 % of control
CCOc1ccccc1/C=C1\N=C(c2ccc(Cl)cc2)OC1=O,T/C,[9],94 % of control
same,T/C,[13],98 % of control
same,T/C,[10],94 % of control
Cc1ccccc1NC(=O)c1cc2ccccc2cc1O,T/C,[5],91 % of control
same,T/C,[1],102 % of control
same,T/C,[7],94 % of control
same,T/C,[2],89 % of control
same,T/C,[14],94 % of control
same,T/C,[3],91 % of control
[Cl][Pt+2][Cl].[NH-]c1ccc(CC(=O)O)cc1[NH-],T/C,"endpoint: mean survival time, dose: 3.13 mg/kg/injection, schedule: Q04DX003 (ip), vehicle: water",103 % of control
same,T/C,"endpoint: mean survival time, dose: 6.25 mg/kg/injection, schedule: Q04DX003 (ip), vehicle: water",105 % of control
same,T/C,"endpoint: mean survival time, dose: 12.5 mg/kg/injection, schedule: Q04DX003 (ip), vehicle: water",101 % of control
same,T/C,"endpoint: mean survival time, dose: 25.0 mg/kg/injection, schedule: Q04DX003 (ip), vehicle: water",116 % of control
O=C(O)C1(c2ccccc2)OCCO1,T/C,"endpoint: mean survival time, dose: 100.0 mg/kg/injection, schedule: Q04DX003 (ip), vehicle: saline",103 % of control
same,T/C,"endpoint: mean survival time, dose: 200.0 mg/kg/injection, schedule: Q04DX003 (ip), vehicle: saline",103 % of control
same,T/C,"endpoint: mean survival time, dose: 400.0 mg/kg/injection, schedule: Q04DX003 (ip), vehicle: saline",97 % of control
CCCCCCCCCCCC1=NC(CO)(CO)CO1,T/C,[5],96 % of control
same,T/C,[7],90 % of control
same,T/C,[14],93 % of control
CC(=O)NCCSSCCNC(C)=O,T/C,"endpoint: mean survival time, dose: 50.0 mg/kg/injection, schedule: Q04DX002 (ip), vehicle: saline with Tween-80",91 % of control
same,T/C,[9],95 % of control
same,T/C,[13],88 % of control
same,T/C,[10],109 % of control
COc1cccc2c1C(=O)c1c(OC)c(CBr)cc(OC)c1C2=O,T/C,"endpoint: mean survival time, dose: 12.5 mg/kg/injection, schedule: Q01DX005 (ip), vehicle: other",96 % of control
same,T/C,"endpoint: mean survival time, dose: 25.0 mg/kg/injection, schedule: Q01DX005 (ip), vehicle: other",101 % of control
same,T/C,"endpoint: mean survival time, dose: 50.0 mg/kg/injection, schedule: Q01DX005 (ip), vehicle: other",96 % of control
same,T/C,"endpoint: mean survival time, dose: 100.0 mg/kg/injection, schedule: Q01DX005 (ip), vehicle: other",86 % of control
O=[N+]([O-])c1ccc(Cl)c2ncccc12,T/C,[1],101 % of control
same,T/C,[2],104 % of control
N=C(OC/C=C/c1ccccc1)C(Cl)(Cl)Cl,T/C,[4],93 % of control
same,T/C,[6],93 % of control
same,T/C,[8],93 % of control
CN1CCN(c2ncnc3c2ncn3C2OC(CO)C(O)C2O)CC1 (configuration not stated),T/C,"endpoint: mean survival time, dose: 12.5 mg/kg/injection, schedule: Q01DX005 (ip), vehicle: water",106 % of control
same,T/C,"endpoint: mean survival time, dose: 25.0 mg/kg/injection, schedule: Q01DX005 (ip), vehicle: water",106 % of control
same,T/C,"endpoint: mean survival time, dose: 50.0 mg/kg/injection, schedule: Q01DX005 (ip), vehicle: water",112 % of control
same,T/C,"endpoint: mean survival time, dose: 100.0 mg/kg/injection, schedule: Q01DX005 (ip), vehicle: water",106 % of control
same,T/C,"endpoint: mean survival time, dose: 200.0 mg/kg/injection, schedule: Q01DX005 (ip), vehicle: water",102 % of control
CC1(C)OC(=O)C(c2ccccc2)O1 (configuration not stated),T/C,[1],100 % of control
same,T/C,[2],98 % of control
same,T/C,[3],104 % of control
COc1ccc(CN(CCO)CCCCCCN(CCO)Cc2ccc(OC)cc2)cc1,T/C,[12],93 % of control
same,T/C,[11],96 % of control
same,T/C,[5],98 % of control
same,T/C,"endpoint: median survival time, dose: 50.0 mg/kg/injection, schedule: Q04DX002 (ip), vehicle: saline",100 % of control
same,T/C,"endpoint: median survival time, dose: 100.0 mg/kg/injection, schedule: Q04DX002 (ip), vehicle: saline",100 % of control
COc1ccc(/C=C(/C(=O)O)c2ccc(OC)cc2)cc1,T/C,"endpoint: mean survival time, dose: 100.0 mg/kg/injection, schedule: Q01DX009 (ip), vehicle: other",98 % of control
same,T/C,"endpoint: mean survival time, dose: 200.0 mg/kg/injection, schedule: Q01DX009 (ip), vehicle: other",102 % of control
same,T/C,"endpoint: mean survival time, dose: 400.0 mg/kg/injection, schedule: Q01DX009 (ip), vehicle: other",98 % of control
